Source: patent publication US9695155B2, “Herbicidal substituted pyrimidinyloxy benzene compounds” (E. I. DU PONT DE NEMOURS AND COMPANY, priority 2013, dated 2017)

Legend:
wild poinsettia = experiment: Test E preemergence; type: in vivo, Euphorbia heterophylla; conditions: for Poinsettia, Wild plant response rating: scale 0 to 100 (0 no effect, 100 complete control); for Plant response rating, Poinsettia, Wild: scale 0 to 100, 0 no effect, 100 complete control
In short: (§1)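 Test chemicals formulated in a non-phytotoxic solvent mixture containing a surfactant were applied preemergence to seeds in silt loam soil or postemergence to plants at the 1- to 4-leaf stage in potting mix. After 14 to 21 days in a greenhouse, injury was visually rated against controls on a 0-100 scale (0 = no effect, 100 = complete control).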

large (Lg) crabgrass = experiment: Test E preemergence; type: in vivo, Digitaria sanguinalis; conditions: for Crabgrass, Large plant response rating: scale 0 to 100 (0 no effect, 100 complete control); for Plant response rating, Crabgrass, Large: scale 0 to 100, 0 no effect, 100 complete control
In short: as §1

fall panicum [1] = experiment: Test E preemergence; type: in vivo, Panicum dichotomiflorum; conditions: for Panicum, Fall plant response rating: scale 0 to 100 (0 no effect, 100 complete control); for Plant response rating, Panicum, Fall: scale 0 to 100, 0 no effect, 100 complete control
In short: as §1

green foxtail = experiment: Test E preemergence; type: in vivo, Setaria viridis; conditions: for Foxtail, Green plant response rating: scale 0 to 100 (0 no effect, 100 complete control); for Plant response rating, Foxtail, Green: scale 0 to 100, 0 no effect, 100 complete control
In short: as §1

barnyardgrass [2] = experiment: Test E preemergence; type: in vivo, Echinochloa crus-galli; conditions: for Barnyardgrass plant response rating: scale 0 to 100 (0 no effect, 100 complete control); for Plant response rating, Barnyardgrass: scale 0 to 100, 0 no effect, 100 complete control
In short: as §1

sandbur = experiment: Test E preemergence; type: in vivo, Cenchrus echinatus; conditions: for Sandbur plant response rating: scale 0 to 100 (0 no effect, 100 complete control); for Plant response rating, Sandbur: scale 0 to 100, 0 no effect, 100 complete control
In short: as §1

Italian ryegrass = experiment: Test E preemergence; type: in vivo, Lolium multiflorum; conditions: for Ryegrass, Italian plant response rating: scale 0 to 100 (0 no effect, 100 complete control); for Plant response rating, Ryegrass, Italian: scale 0 to 100, 0 no effect, 100 complete control
In short: as §1

dayflower = experiment: Test E preemergence; type: in vivo, Commelina virginica; conditions: for Dayflower, VA plant response rating: scale 0 to 100 (0 no effect, 100 complete control); for Plant response rating, Dayflower, VA: scale 0 to 100, 0 no effect, 100 complete control
In short: as §1

corn = experiment: Test E postemergence; type: in vivo, Zea mays
In short: as §1

palmer pigweed = experiment: Test E postemergence; type: in vivo, Amaranthus palmeri
In short: as §1

[3] = test system: waterhemp_RES1 (ALS & Triazine resistant common waterhemp); experiment: Test E postemergence; type: in vivo, Amaranthus rudis
In short: as §1

[4] = test system: waterhemp_RES2 (ALS & HPPD resistant common waterhemp); experiment: Test E postemergence; type: in vivo, Amaranthus rudis
In short: as §1

waterhemp = experiment: Test E postemergence; type: in vivo, Amaranthus rudis
In short: as §1

fall panicum [5] = experiment: Test E postemergence; type: in vivo, Panicum dichotomiflorum
In short: as §1

rice = experiment: Test C flooded paddy test; type: in vivo, Oryza sativa; conditions: Flood, scale 0 to 100 (0 no effect, 100 complete control), 13 to 15 days
In short: (§2)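 Under a constant 3 cm flood, test compounds went directly into the paddy water. Following 13 to 15 days of greenhouse growth, treated species and controls were compared by eye.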

barnyardgrass [6] = experiment: Test C flooded paddy test; type: in vivo, Echinochloa crus-galli; conditions: Flood, scale 0 to 100 (0 no effect, 100 complete control), 13 to 15 days
In short: as §2

[7] = Postemergence, 62 g ai/ha, scale 0 to 100
[8] = Postemergence, 125 g ai/ha, scale 0 to 100
[9] = Postemergence, 31 g ai/ha, scale 0 to 100
[10] = Postemergence, 250 g ai/ha, scale 0 to 100
[11] = postemergence, 16 g ai/ha, scale 0 to 100, 0 no effect, 100 complete control

N#Cc1cccc(Oc2ncc(Cl)cn2)c1-n1cc(Cl)cn1 [Compound 72]
20: Ryegrass, Italian plant response rating (Italian ryegrass; 62 g ai/ha)
95: Foxtail, Green plant response rating (green foxtail; 62 g ai/ha) | Plant response rating, Dayflower, VA (dayflower; 250 g ai/ha) | Plant response rating, Waterhemp_RES1 [3, 8]
0: Panicum, Fall plant response rating (fall panicum [1]; 16 g ai/ha) | Barnyardgrass plant response rating (barnyardgrass [2]; 16 g ai/ha, preemergence) | Barnyardgrass plant response rating (barnyardgrass [2]; 31 g ai/ha, preemergence) | Ryegrass, Italian plant response rating (Italian ryegrass; 16 g ai/ha) | Dayflower, VA plant response rating (dayflower; 16 g ai/ha) | Dayflower, VA plant response rating (dayflower; 31 g ai/ha)
65: Panicum, Fall plant response rating (fall panicum [1]; 31 g ai/ha) | Plant response rating, Dayflower, VA (dayflower; 125 g ai/ha)
100: Crabgrass, Large plant response rating (large (Lg) crabgrass; 62 g ai/ha) | Plant response rating, Crabgrass, Large (large (Lg) crabgrass; 125 g ai/ha) | Plant response rating, Crabgrass, Large (large (Lg) crabgrass; 250 g ai/ha) | Plant response rating, Panicum, Fall (fall panicum [1]; 125 g ai/ha) | Plant response rating, Panicum, Fall (fall panicum [1]; 250 g ai/ha) | Plant response rating, Foxtail, Green (green foxtail; 125 g ai/ha) | Plant response rating, Foxtail, Green (green foxtail; 250 g ai/ha)
75: Plant response rating, Ryegrass, Italian (Italian ryegrass; 250 g ai/ha) | Plant response rating, Pigweed, Palmer (palmer pigweed; [7]) | Plant response rating, Waterhemp_RES1 [3, 7]
98: Panicum, Fall plant response rating (fall panicum [1]; 62 g ai/ha) | Plant response rating, Waterhemp (waterhemp; [8])
30: Foxtail, Green plant response rating (green foxtail; 16 g ai/ha) | Foxtail, Green plant response rating (green foxtail; 31 g ai/ha) | Sandbur plant response rating (sandbur; 62 g ai/ha)
25: Sandbur plant response rating (sandbur; 16 g ai/ha)
90: Plant response rating, Barnyardgrass (barnyardgrass [2]; preemergence, 250 g ai/ha) | Plant response rating, Pigweed, Palmer (palmer pigweed; [8]) | Plant response rating, Waterhemp_RES2 [4, 8]
80: Crabgrass, Large plant response rating (large (Lg) crabgrass; 31 g ai/ha) | Plant response rating, Waterhemp_RES2 [4, 7] | Plant response rating, Waterhemp (waterhemp; [7])
10: Plant response rating, Corn (corn; [8]) | Plant response rating, Panicum, Fall (fall panicum [5]; [7]) | Plant response rating, Panicum, Fall (fall panicum [5]; [8])
5: Poinsettia, Wild plant response rating (wild poinsettia; 31 g ai/ha)
35: Plant response rating, Barnyardgrass (barnyardgrass [2]; preemergence, 125 g ai/ha) | Plant response rating, Sandbur (sandbur; 125 g ai/ha) | Plant response rating, Ryegrass, Italian (Italian ryegrass; 125 g ai/ha) | Dayflower, VA plant response rating (dayflower; 62 g ai/ha)
40: Sandbur plant response rating (sandbur; 31 g ai/ha)
15: Poinsettia, Wild plant response rating (wild poinsettia; 16 g ai/ha) | Poinsettia, Wild plant response rating (wild poinsettia; 62 g ai/ha) | Plant response rating, Barnyardgrass (barnyardgrass [2]; Preemergence, 62 g ai/ha) | Ryegrass, Italian plant response rating (Italian ryegrass; 31 g ai/ha) | Plant response rating, Corn (corn; [7])
50: Crabgrass, Large plant response rating (large (Lg) crabgrass; 16 g ai/ha) | Plant response rating, Sandbur (sandbur; 250 g ai/ha)
70: Plant response rating, Poinsettia, Wild (wild poinsettia; 125 g ai/ha) | Plant response rating, Poinsettia, Wild (wild poinsettia; 250 g ai/ha)

N#Cc1cnn(-c2c(C#N)cccc2Oc2ncc(Cl)cn2)c1 [Compound 200]
35: Crabgrass, Large plant response rating (large (Lg) crabgrass; 31 g ai/ha) | Dayflower, VA plant response rating (dayflower; 31 g ai/ha)
100: Plant response rating, Crabgrass, Large (large (Lg) crabgrass; 250 g ai/ha) | Plant response rating, Panicum, Fall (fall panicum [1]; 125 g ai/ha) | Plant response rating, Panicum, Fall (fall panicum [1]; 250 g ai/ha) | Plant response rating, Foxtail, Green (green foxtail; 250 g ai/ha) | Plant response rating, Pigweed, Palmer (palmer pigweed; [10]) | Plant response rating, Waterhemp_RES1 [3, 8] | Plant response rating, Waterhemp_RES1 [3, 10] | Plant response rating, Waterhemp_RES2 [4, 8] | Plant response rating, Waterhemp_RES2 [4, 10] | Plant response rating, Waterhemp (waterhemp; [10])
30: Foxtail, Green plant response rating (green foxtail; 62 g ai/ha)
40: Plant response rating, Sandbur (sandbur; 125 g ai/ha) | Plant response rating, Pigweed, Palmer (palmer pigweed; [11])
75: Panicum, Fall plant response rating (fall panicum [1]; 31 g ai/ha) | Plant response rating, Foxtail, Green (green foxtail; 125 g ai/ha) | Plant response rating, Pigweed, Palmer (palmer pigweed; [7])
25: Plant response rating, Barnyardgrass (barnyardgrass [6]; 250 g ai/ha) | Plant response rating, Corn (corn; [10])
85: Plant response rating, Dayflower, VA (dayflower; 250 g ai/ha)
50: Poinsettia, Wild plant response rating (wild poinsettia; 31 g ai/ha) | Poinsettia, Wild plant response rating (wild poinsettia; 62 g ai/ha) | Plant response rating, Panicum, Fall (fall panicum [5]; [8]) | Plant response rating, Panicum, Fall (fall panicum [5]; [10])
5: Crabgrass, Large plant response rating (large (Lg) crabgrass; 16 g ai/ha) | Foxtail, Green plant response rating (green foxtail; 31 g ai/ha) | Sandbur plant response rating (sandbur; 62 g ai/ha)
20: Ryegrass, Italian plant response rating (Italian ryegrass; 62 g ai/ha) | Plant response rating, Corn (corn; [8]) | Plant response rating, Panicum, Fall (fall panicum [5]; [7])
70: Plant response rating, Sandbur (sandbur; 250 g ai/ha) | Plant response rating, Pigweed, Palmer (palmer pigweed; [9]) | Plant response rating, Waterhemp_RES1 [3, 11]
15: Plant response rating, Corn (corn; [7])
95: Plant response rating, Poinsettia, Wild (wild poinsettia; 250 g ai/ha) | Panicum, Fall plant response rating (fall panicum [1]; 62 g ai/ha) | Plant response rating, Barnyardgrass (barnyardgrass [2]; preemergence, 250 g ai/ha) | Plant response rating, Waterhemp (waterhemp; [7]) | Plant response rating, Waterhemp (waterhemp; [8])
90: Plant response rating, Poinsettia, Wild (wild poinsettia; 125 g ai/ha) | Plant response rating, Waterhemp_RES1 [3, 7] | Plant response rating, Waterhemp_RES2 [4, 9] | Plant response rating, Waterhemp_RES2 [4, 7] | Plant response rating, Waterhemp_RES2 [4, 11] | Plant response rating, Waterhemp (waterhemp; [9])
80: Plant response rating, Crabgrass, Large (large (Lg) crabgrass; 125 g ai/ha) | Plant response rating, Ryegrass, Italian (Italian ryegrass; 250 g ai/ha) | Plant response rating, Waterhemp_RES1 [3, 9] | Plant response rating, Waterhemp (waterhemp; [11])
0: Plant response rating, Rice (rice; 31 g ai/ha) | Plant response rating, Rice (rice; 62 g ai/ha) | Plant response rating, Rice (rice; 125 g ai/ha) | Plant response rating, Rice (rice; 250 g ai/ha) | Plant response rating, Barnyardgrass (barnyardgrass [6]; 31 g ai/ha) | Plant response rating, Barnyardgrass (barnyardgrass [6]; 62 g ai/ha) | Plant response rating, Barnyardgrass (barnyardgrass [6]; 125 g ai/ha) | Foxtail, Green plant response rating (green foxtail; 16 g ai/ha) | Barnyardgrass plant response rating (barnyardgrass [2]; 16 g ai/ha, preemergence) | Barnyardgrass plant response rating (barnyardgrass [2]; 31 g ai/ha, preemergence) | Sandbur plant response rating (sandbur; 31 g ai/ha) | Ryegrass, Italian plant response rating (Italian ryegrass; 31 g ai/ha) | Dayflower, VA plant response rating (dayflower; 16 g ai/ha)
10: Barnyardgrass plant response rating (barnyardgrass [2]; 62 g ai/ha, preemergence) | Plant response rating, Corn (corn; [9]) | Plant response rating, Corn (corn; [11]) | Plant response rating, Panicum, Fall (fall panicum [5]; [9]) | Plant response rating, Panicum, Fall (fall panicum [5]; [11])
60: Plant response rating, Barnyardgrass (barnyardgrass [2]; preemergence, 125 g ai/ha) | Plant response rating, Ryegrass, Italian (Italian ryegrass; 125 g ai/ha)
98: Plant response rating, Pigweed, Palmer (palmer pigweed; [8])
65: Crabgrass, Large plant response rating (large (Lg) crabgrass; 62 g ai/ha) | Dayflower, VA plant response rating (dayflower; 62 g ai/ha) | Plant response rating, Dayflower, VA (dayflower; 125 g ai/ha)
